Measurements taken from patent publication US11510917B2, “HIF-stabilization and prevention of hyperoxia-induced neonatal lung disease” (CORNELL UNIVERSITY, priority 2016, dated 2022).

Key:
[1] = system: neonatal mice chronically exposed to hyperoxia; test: Pulmonary function test of lung compliance after neonatal hyperoxia; assay type: in vivo, mouse; details: 80% neonatal hyperoxia; intermittent treatment
Protocol: Pulmonary function tests (PFTs) were performed in 5- (CD1, MCD and CC) and 20-week old mice (CD1) post-neonatal HO or RA. Briefly, mice were anaesthetized with pentobarbital (100 mg/kg, intraperitoneal; American Pharmaceutical Partners), tracheostomized and mechanically ventilated at a rate of 150 breaths/min, a tidal volume of 10 ml/kg and positive end-expiratory pressure of 2-3 cm H2O using a computer-controlled animal ventilator (Sireq). The following perturbations were used to assess baseline respiratory mechanics and analyzed using Flexivent software (Sireq). Static lung compliance (Cst) was determined using the Salazar-Knowles equation applied to the plateau pressure measurements obtained between total lung capacity and functional residual capacity. Broadband forced oscillations were applied to determine tissue resistance (R) and Newtonian (airway) resistance (Rn) using a constant phase model. Mice used for measuring pulmonary function were not used for histological analyses.

[2] = system: neonatal mice chronically exposed to hyperoxia; test: Oxygen-induced lung injury, lung airspace analysis (chord length Lm); assay type: in vivo, mouse; details: for alveolar enlargement, lung histology: 80% O2, 200 mg/kg i.p. intermittent during oxygen supplementation (Example 3); for protection of alveolar size (Lm) against moderate hyperoxia: about 45% O2, 2- and 5-week time points
Text: For this study we utilized a well-defined murine model of CLD using neonatal mice chronically exposed to hyperoxia for 2 weeks followed by normoxia for an additional 3. Timed pregnant mice were monitored hourly. Within hours of birth litters were pooled before being randomly redistributed to the newly delivered mothers. Experiments were begun on newborns at postnatal day 0. Half of the newborn pups were placed in a chamber designed to deliver variable oxygen concentrations (Biospherix Ltd) and set to 80% O2 (HO) and the other half remained in room air (RA) as age-matched controls. Mothers were rotated every 12 hours to prevent death from acute O2 toxicity. Neonatal CD1 mice also referred to as wild-type mice (Charles River), MCD mice (WBB6F1^−W/Wv) and their mast cell competent litter mates WBB6F1-^+/^+ (congenic controls (CC)) (Jackson Laboratories) were exposed to either HO or RA for 2 weeks and then kept in room air (FiO2 of 0.21) an additional 3 weeks for the 5-week time point. Some CD1 mice (HO and RA) were also maintained 18 weeks in room air for the 20-week time point. Survival and weight were monitored daily. All mice (CD1, MCD, and CC) used in this study were healthy at birth and survived until sacrificed. Unless specifically noted as CC or MCD, mouse experiments were performed with CD1 mice.
Oxygen-induced lung injury and lung airspace analysis. A well-defined murine model of CLD, a.k.a. bronchopulmonary dysplasia, using neonatal mice chronically exposed to hyperoxia followed by normoxia was used for our studies. Timed pregnant CD1 mice (Charles River) were monitored hourly. Within hours of birth litters were pooled before being randomly redistributed to the newly delivered mothers. Half of the newborn pups were immediately placed in a chamber designed to deliver variable oxygen concentrations (Biospherix) and set to 80%, 45% or 30% O2 (hyperoxia) and the other half remained in room air. Mothers were rotated every 12 hrs to prevent death from acute O2 toxicity. Newborn pups were exposed to either hyperoxia or room air for 2 weeks. […] Some animals were then kept in room air for an additional 3 weeks or 18 weeks before analysis. Lungs from mice were fixed at a constant inflation pressure of 25 cm H2O in 10% neutral buffered formalin followed by paraffin embedding. Sections (7 μm) were cut and slides of paraffinized tissue sections were deparaffinized, rehydrated, and washed in distilled water. Sections were stained with hematoxylin and eosin to visualize the structure of the lung. The direct method was used for the accurate estimation of the mean linear intercept length (Lm) (chord length) to assess the mean free distance in the alveoli. This method uses a set of random intercepts and calculates Lm from their frequency distribution and provides results on alveolar size distribution and alveolar surface area. […] On average 30-50 non-overlapping 1 mm^2 fields were analyzed for each lung section. Mean chord length of each alveolus (μm) was measured with the areas of approximately 4,000 individual alveoli/mouse measured in sections from room air mice and about 2,000 individual alveoli/mouse were analyzed in lung sections from hyperoxic mice.
The direct method was used for the accurate estimation of the mean linear intercept length (Lm) (chord length) to assess the mean free distance in the alveoli. […] On average 30-50 non-overlapping 1 mm^2fields were analyzed for each lung section and mean chord length of each alveolus (μm) was measured.

Mast cells = test: Mast cell protease (tryptase, chymase) abundance by Western blot; assay type: cell-based; details: high oxygen (80%)
Text: FIG. 14. […] Mast cells express tryptase and chymase. […] N=4 separate blots, different samples. Aliquots of purified TA and HMC-1 exosomes were homogenized and the protein amounts determined by Lowry assay. Primary antibodies used were: mouse monoclonal TSG 101 (Santa Cruz sc-7964) at 1:500 dilution, mouse monoclonal Alix (Cell Signaling, 2171) at 1:1000 dilution, rabbit polyclonal CD63 (Santa Cruz, sc-15363) at 1:500 dilution, rabbit polyclonal chymase at a 1:2500 dilution (Abcam, 186417), mouse monoclonal mast cell tryptase (Abcam, ab2378) at 1:3000 dilution, rabbit polyclonal elastase (Abcam, ab68672) at 1:1000 dilution, mouse monoclonal mast cell CPA3 (Abcam, ab72575) at 1:500 dilution, and mouse monoclonal GAPDH (Cell Signaling, 14C10) and β-actin (Cell Signaling, 3700) at 1:100,000 dilution. GAPDH and β-actin were used as loading controls.

Hep3B cells = test: HIF-1α stabilization and EPO expression in cultured hepatoma cells; assay type: cell-based, human
HIF-1α = test: Western blot of HIF-1α protein in mouse organs; assay type: in vivo
lung mast cells = test: Lung mast cell number after neonatal hyperoxia; assay type: in vivo, mouse; details: 10 mg/kg, 5-week time point
Text: Lungs from mice (CD1, MCD and CC), not undergoing pulmonary function testing, were fixed at a constant inflation pressure of 25 cm H2O in 10% neutral buffered formalin followed by paraffin embedding. Slides with 7 μm sections were deparaffinized, rehydrated, and washed in distilled water. Some sections were stained with hematoxylin and eosin (H&E) to visualize the structure of the lung. Other sections were stained with an antibody (CC10) (Santa Cruz Biotechnology) (1:50 dilution) to detect club cells, a cell type specific to the airways. Analysis on the alveolar space deliberately avoided airways and blood vessels. For each animal, 5 lung sections were analyzed and quantified as cells per mm^2 of lung tissue. Mast cells were detected in fixed tissue using either the glycoprotein avidin, conjugated to the enzyme horseradish peroxidase (HRP) (Vector Laboratories) or toluidine blue, the classic metachromatic stain for mast cells. Conjugated avidin is a well-defined histochemical method for identifying rodent and human mast cells, which express chondroitin sulfate E proteoglycans and heparin proteoglycans, respectively, in the secretory granules, binding specifically to the proteoglycan granules. Non-specific staining of biotin or biotin-like molecules previously reported […]. Deparaffinized sections were exposed to avidin-HRP 1:500. […]

EPO = test: ELISA of serum EPO; assay type: in vivo, mouse
HIF PHD = test: luc-ODD luciferase reporter, live imaging and organ lysates; assay type: in vivo, mouse
Protocol: Detection of luc-ODD luciferase reporter in vivo and in vitro. Live imaging of luciferase activity was performed using Bruker Xtreme small animal x-ray, fluorescence bioluminescence imaging system. Luc-ODD mouse pups at 12 days of age (P12) were divided into appropriate experimental groups identified by ear notches and treated according to the experimental design, i.e., various length of pharmacological treatment (0, 3, 9, 24 hrs), or route of administration (intraperitoneal vs subcutaneous for 3 hrs). […] Ten minutes later, pups (in groups of 2 to 4) were placed in an imaging chamber supplied with a heated pad and inhalation cones for oxygen/isofurane mixture. Ventral and dorsal bioluminescent images were collected for 30 sec followed by white light images taken at autoexposure time. Light and luminescent images where then superimposed and quantitatively analyzed using Bruker MI v7 software. Luciferase activity in mouse organs was detected as follows. […] Tissues were placed in Glo Lysis Buffer (Promega), homogenized with disposable plastic pestles fitted to 1.5 mL microtubes on ice and centrifuged at 20,000×g, 4° C., for 15 min. Protein concentrations of tissue extracts were determined using BCA Protein Assay (Thermo Sci), adjusted to 150 ug (retina), 300 ug (kidney, spleen, lung) or 600 ug (brain, liver) per assay reaction by diluting with Glo Lysis Buffer in a total volume of 100 uL and placed in the wells of white opaque 96-well plate. Diluted extracts were then brought to room temperature, mixed with equal volume (100 uL) of ready-to-use luciferase substrate Bright-Glo Luciferase Assay System (Promega) and luminescence was measured immediately by a luminometer/fluorimeter Victor X2 (PerkinElmer).

[3] = kidney and liver, single i.p. injection

half-life of HIF PHD inhibition (HIF PHD; [3]) [h]	organs with highest luminescence (HIF PHD; luc-ODD mouse, ventral and dorsal views, i.p. or s.c. injection)	SMILES	lung compliance [1]	alveolar enlargement, lung histology [2]	hyperoxia-induced tryptase and chymase abundance (Mast cells)	hyperoxia-induced tryptase and chymase abundance (Mast cells; listed as RXD)	HIF-1α stabilization and expression of EPO mRNA and protein (Hep3B cells)	increase of HIF-1α protein (HIF-1α; liver and kidney)	increase of HIF-1α protein (HIF-1α; spleen, lung, brain, and retina)	lung mast cell increase (lung mast cells; moderate (45%) hyperoxia)	lung mast cell increase (lung mast cells; severe (80%) hyperoxia)	time of maximal increase in serum erythropoietin (EPO) (EPO; after i.p. injection) [h]	dose of maximal effect, serum EPO as marker of HIF-1 activity (EPO; dose response in the mouse) [mg/kg bodyweight]	increase in serum EPO protein concentration (EPO; i.p. 10 mg/kg, P8 pups) [fold]	alveolar size by chord length (Lm) ([2]; 80% O2 first 2 weeks then 3 weeks room air, 10 mg/kg s.c. intermittent, CD1 pups, 5-week time point, 10 mg/kg)	protection of alveolar size (Lm) against moderate hyperoxia ([2]; CD1 pups)	protection of alveolar size (Lm) against moderate hyperoxia ([2]; CD1 pups, listed as RXD)	duration of HIF PHD inhibition (HIF PHD; [3])	luciferase activity over baseline (HIF PHD; tissue lysates, liver) [fold]
–	–	COC(=O)CNC(=O)C(=O)OC [DMOG, N-(2-Methoxy-2-oxaoacetyl)glycine methyl ester]	maintains normal lung compliance	normalizes alveolar enlargement	–	–	–	–	–	–	–	–	–	–	–	–	–	–	–
48 to 72	liver and kidney	Cc1nc(C(=O)NCC(=O)O)c(O)c2ccc(Oc3ccccc3)cc12 [Roxadustat, N-[(4-hydroxy-1-methyl-7-phenoxyisoquinolin-3-yl)carbonyl]glycine]	–	reduced	decreases	decreased	can be recapitulated	5-10 fold	two-fold increase	prevents the increase in mast cells	prevents the increase in mast cells	6	10	8	statistically significant normalization in alveolar size	statistically significant normalization in alveolar size	protective	at least 24 hours	6
